Assay results from patent US11229204B2, “Herbicidal composition comprising at least one phenolic active compound” (UNIVERSITÉ DE LIÈGE, priority 2018, dated 2022).

Legend:
[1] = tested on: Raphanus sativus and Lepidium sativum; settings: 27 flavonoids tested; only poor results on radical elongation for the highest tested concentration of 10^−4M; cited from earlier work
[2] = tested on: Trifolium incarnatum; test: Pre-emergence activity, experiment n° 2: hypocotyl and root lengths of seeds on moistened filter paper; assay type: in vivo; settings: 100 mg/L in methanol 1%
Experimental: Seeds of Trifolium incarnatum were obtained from ECOSEM industry (Belgium). Filter papers were placed in petri dishes and moistened with 2 ml of methanol 1% solution for the seedling control, or with myricitrin solution at 100 mg/L in methanol 1% for the treated seedling. Methanol was identified as a solvent not interfering with the pre-emergence of plants. Ten seeds of Trifolium incarnatum were then placed immediately in each petri dish and three replicates were prepared. All petri dishes were randomly placed in a growth chamber at a temperature of 23±1° C., in the dark and the hypocotyls and root lengths were measured after 7 days.

SMILES	effect on germination and radical elongation [1]	seed germination compared with control ([2]; 7 incubation days)	development of roots and hypocotyls ([2]; 7 days (FIG. 5))	phytotoxic effect on the pre-emergence in comparison with the control ([2]; 7 days, 23±1° C., dark (FIG. 5))
COc1c(-c2ccccc2)oc2ccccc2c1=O [3-OCH3-flavone]	act on germination and on radical elongation			
COc1ccc(-c2cc(=O)c3ccccc3o2)cc1OC [3′,4′-di-OCH3-flavone]	act on germination and on radical elongation			
C[C@@H]1O[C@@H](Oc2c(-c3cc(O)c(O)c(O)c3)oc3cc(O)cc(O)c3c2=O)[C@H](O)[C@H](O)[C@H]1O [myricitrin]		inhibited seed germination	inhibited	significant phytotoxic effect
O=C1C[C@@H](c2ccccc2)Oc2cc(O)cc(O)c21 [pinocembrin, 5,7-di-OH-flavanone]	act on germination and on radical elongation			
O=c1c(O)c(-c2ccc(O)c(O)c2)oc2cc(O)cc(O)c12 [quercetin, 3,5,7,3′,4′-penta-OH-flavone]	act on germination and on radical elongation			
